Type in all cases: cell-based
Assay [1] deals with RAJI cells. In words: Matador assay, Digitonin-induced death of RAJI cells expressing luciferase reporters. Here is the method: A similar experiment was conducted with K562, HEL-91-1-17 and RAJI cells stably expressing NLuc from pLENTI-NLuc-AcV5-Blasticidin-Pa08 vector (SEQ ID NO: 92). Cells plated in 30 μl of medium per well were either treated with 30 μl of PBS or 30 μl of PBS containing Digitonin (final concentration 30 μg/ml) for 1 hour at 37° C., in a 5% CO2 incubator. For measurement of NLuc activity, 0.5×CTZ assay buffer was added by automated injector directly to each well of the 384-well white plate containing cells in 60 μl of volume (30 μl of RPMI-10% FBS+30 μl of Digitonin) without prior cell lysis and plates were read for luminescence using BioTek synergy H4 plate reader in well mode.
(§1) Briefly, 20000 cells in 20 μl media were plated in each well of a 384 well plate followed by addition of 20 μl of Digitonin (final concentration 30 μg/ml) or media alone (20 μl) and incubated for 90 minutes.
Background: In a reporter assay the amount or activity of a reporter protein is the signal.

Assay [2] deals with K562 cells. Kind of assay: Matador assay, death of K562 reporter cells induced by Digitonin or lytic reagent.
The subject of assay [3] is HEL-92-1-17 cells. In words: Matador assay, Digitonin-induced death of HEL cells expressing a luciferase reporter. As to conditions: Digitonin 30 μg/ml, 1 hour. Here is the method:
A 100× stock solution of native coelenterazine (CTZ; Nanolight, cat #303) was made by dissolving 1 mg of lyophilized CTZ powder in 1.1 ml of 100% Methanol supplemented with 30 μl of 6N HCl to avoid oxidation of CTZ with time. To make CTZ assay buffer, the 100× stock solution of CTZ was diluted to 0.5× concentration in PBS. Unless indicated otherwise, a total volume of 15 μl of the CTZ assay buffer (as prepared above) was added using an auto-injector to each well of a 384-well white plate (Greiner, 384 well white plate cat #781075) containing cells expressing the non-secretory form of a copepod luciferase in approximately 50-60 μl volume of medium and plates were read for luminescence in well-mode using BioTek synergyH4 plate reader. In the well-mode, an auto-injector or dispenser is used and assay buffer is added in one well, luminescence is read in that well, then the assay buffer is added to next well and luminescence is read in that well. Where indicated, assay was also conducted in the endpoint mode. In the endpoint mode, an autoinjector or dispenser is not used, the assay buffer is added in all wells manually using a pipette and then luminescence is read in all wells of the plate. For 96 well plates, cells were plated in 200 μl of media and approximately 50 μl of 0.5×CTZ assay buffer was added. […]

The subject of assay [4] is Nalm6 cells. In words: Dual reporter Matador assay, Digitonin-induced death of Nalm6 cells. As to conditions: Nalm6 cells expressing both GLuc and FfLuc; Digitonin 30 μg/ml, 90 minutes. Here is the method:
as §1

The text below walks through data of patent US11307205B2, “Non-radioactive cytotoxicity assays” (University of Southern California, priority 2016, dated 2022).

As for `C[C@@H]1CC[C@@]2(OC1)O[C@H]1[C@@H](O)[C@H]3[C@@H]4CC[C@H]5C[C@@H](O[C@@H]6O[C@H](CO)[C@H](O[C@@H]7O[C@H](CO)[C@@H](O)[C@H](O[C@@H]8OC[C@@H](O)[C@H](O)[C@H]8O)[C@H]7O[C@@H]7O[C@H](CO)[C@H](O)[C@H](O[C@@H]8O[C@H](CO)[C@@H](O)[C@H](O)[C@H]8O)[C@H]7O)[C@H](O)[C@H]6O)[C@H](O)C[C@]5(C)[C@H]4CC[C@]3(C)[C@H]1[C@@H]2C` [Digitonin], the TLuc activity entry is recorded as “increase in TLuc activity” in assay [1] (RAJI cells expressing TurboLuc16, Digitonin 90 min) and “increase in TLuc activity” in assay [2] (K562 cells expressing TurboLuc16, Digitonin 90 min). For the same compound, the GLuc luciferase activity result is reported as “Essentially similar results” in assay [1] (RAJI cells stably expressing GLuc from MSCVhygro-GLuc-HA-G02, Digitonin) and “increase in GLuc luciferase activity” in assay [3] (HEL-92-1-17 cells stably expressing GLuc, evident even in wells containing a single cell). The NLuc activity result in assay [1] (RAJI cells stably expressing NLuc, Digitonin 30 μg/ml, 1 hour) was “increase in NLuc activity”; in assay [2] (K562 cells stably expressing NLuc, Digitonin 30 μg/ml, 1 hour), “increase in NLuc activity”; in assay [3] (HEL-92-1-17 cells stably expressing NLuc), “increase in NLuc activity”. In addition, the “FfLuc and GLuc activities” value is “increase in both FfLuc and GLuc activities” in assay [1] (Raji cells expressing both GLuc and FfLuc, Digitonin 30 μg/ml, 90 minutes); “increase in both FfLuc and GLuc activities” in assay [2] (K562 cells expressing both GLuc and FfLuc, Digitonin 30 μg/ml, 90 minutes); “increase in both FfLuc and GLuc activities” in assay [4]. The MLuc7 activity result in assay [2] (K562-MLuc7 (additional example), Digitonin 30 μg/ml, 1 cell/well to 10K cells/well) was “increase in MLuc7 activity”; in assay [2] (K562-MLuc7, Digitonin 1 hour, 1 cell/well to 400K cells/well), “increase in MLuc7 activity”. For the same compound, the “NLuc luminescence in the supernatant” value in assay [2] (K562-NLuc, Digitonin 1 h, all three assay buffers) is given as “increase in luminescence”. Further, in assay [2] (K562 cells stably expressing LucPPe-146-1H2, Digitonin 30 μg/ml), the LucPPe-146-1H2 activity entry is on record as “increase in LucPPe-146-1H2 activity”. Also, the “Renilla Luc activity” value in assay [2] (K562 cells stably expressing Renilla Luc, Digitonin 2 hours) is listed as “increase in Renilla Luc activity”. In assay [2] (K562 cells stably expressing these luciferases, Digitonin 30 μg/ml, example in present tense), the “Luc49-7C6A, Luc78-0B10, Luc133-IB2 and LucPpL-81-6G1 activities” value was “increase in Luc49-7C6A, Luc78-0B10, Luc133-IB2 and LucPpL-81-6G1 activities”. Further, the “LucPPe-146-1H2 and NLuc luminescence” value in assay [2] (K562 co-expressing both luciferases, Digitonin 30 μg/ml, 90 minutes, Dual-Luciferase Reporter Assay System) is “increase in both LucPPe-146-1H2 and NLuc luminescence”. In assay [2] (K562 co-expressing both luciferases, Digitonin, measured in different wells with D-luciferin and CTZ assay buffers), the “LucPPe-146-1H2 and NLuc activities” value was “increase in both LucPPe-146-1H2 and NLuc activities”.
